Active and inactive are the calls of the source. How the calls were made is not given here.
What follows are compounds tested on HTR5A counterscreen cells, luminescence, activation (assay: HTR5A agonist-like luminescent signal – cell-based, luminescence, dose response, set 2, counter-screen for OPRM1-OPRD1 heterodimer activator project, late-stage follow-up (AID 651765)).

Compound | EC50
CCOC(=O)C1CCN(C(=O)c2ccc(N(C)C)cc2)CC1 | > 50 µM (inactive)
C=Cc1ccc(C(=O)N2CCC(CCCc3ccccc3)(C(=O)OCC)CC2)cc1 | > 50 µM (inactive)
CCOC(=O)C1CCN(Cc2ccc(N(C)C)cc2)CC1 | > 50 µM (inactive)
CCOC(=O)C1(CCc2ccccc2)CCN(Cc2ccc(C(=O)OC)cc2)CC1 | > 50 µM (inactive)
CCOC(=O)C1(Cc2ccccc2Cl)CCN(Cc2ccc(NC(C)=O)cc2)CC1 | > 50 µM (inactive)
CCOC(=O)C1(CCc2ccccc2)CCN(Cc2ccc(C#CC(C)(C)O)cc2)CC1 | > 50 µM (inactive)
CCOC(=O)C1(Cc2ccccc2)CCCN(Cc2ccc(NC(C)=O)cc2)C1 (stereo not drawn) | > 50 µM (inactive)
CCOC(=O)C1CCN(CCC(=O)Nc2ccc(C)cc2)CC1 | > 50 µM (inactive)
CCOC(=O)C1(CCc2ccccc2)CCN(C(=O)Nc2ccc(C)cc2C)CC1 | > 50 µM (inactive)
CCOC(=O)C1(CCc2ccccc2)CCN(Cc2c(O)cccc2OC)CC1 | > 50 µM (inactive)
CCOC(=O)C1(CCc2ccccc2)CCN(Cc2ccc(OC)cc2)CC1 | > 50 µM (inactive)
CC(=O)Nc1ccc(CN2CCCC(CO)(CCc3ccccc3)C2)cc1 (stereo not drawn) | > 50 µM (inactive)
CCOC(=O)C1(CCc2ccccc2)CCN(Cc2ccncc2)CC1 | > 50 µM (inactive)
CCOC(=O)C1(CCOC)CCN(Cc2ccc(N(C)c3ccccc3)cc2)CC1 | > 50 µM (inactive)
CCOC(=O)C1(CCOc2ccccc2)CCCN(Cc2ccc(NC(C)=O)cc2)C1 (stereo not drawn) | > 50 µM (inactive)
CCOC(=O)C1(Cc2cccc(OC)c2)CCCN(Cc2ccc(NC(C)=O)cc2)C1 (stereo not drawn) | > 50 µM (inactive)
CCOC(=O)C1(CCOC)CCN(Cc2ccc(NC(C)=O)cc2)CC1 | > 50 µM (inactive)
O=C(O)C1CCCCC1C(=O)Nc1ccc(CN2CCCCC2)cc1 (stereo not drawn) | > 50 µM (inactive)
CCOC(=O)C1(Cc2ccc(OC)cc2)CCN(C(=O)c2ccc(N(C)C)cc2)CC1 | > 50 µM (inactive)
CCOC(=O)C1(CCc2ccccc2)CCCN(Cc2ccc(N3CCNC3=O)cc2)C1 (stereo not drawn) | > 50 µM (inactive)
CCOC(=O)C1CCN(Cc2ccc(NC(C)=O)cc2)CC1 | > 50 µM (inactive)
C=Cc1ccc(C(=O)N2CCC(CCc3ccccc3)(C(=O)OCC)CC2)cc1 | > 50 µM (inactive)
CCOC(=O)C1(Cc2ccccc2C)CCCN(Cc2ccc(NC(C)=O)cc2)C1 (stereo not drawn) | > 50 µM (inactive)
CCOC(=O)C1(CCc2ccccc2)CCN(Cc2ccc(O)cc2)CC1 | > 50 µM (inactive)
CCOC(=O)C1CCCCN1Cc1ccc(NC(C)=O)cc1 (stereo not drawn) | > 50 µM (inactive)
CCOC(=O)C1(CC2CC2)CCN(Cc2ccc(NC(C)=O)cc2)CC1 | > 50 µM (inactive)
CCOC(=O)C1(CC2CC2)CCN(C(=O)c2ccc(N3CCCCC3)cc2)CC1 | > 50 µM (inactive)
CCOC(=O)C1(CCOC)CCCN(Cc2ccc(NC(C)=O)cc2)C1 (stereo not drawn) | > 50 µM (inactive)
